pIC50, pKi: −log10 of the molar value. Values after ≈ are worked out from the molar mass of the structure shown. Active and inactive are the calls of the source. The calls are words filed in the database; no cut-off is given here.
Legend:
[1] = Solubility of compound at pH 7.4; type: physicochemical; details: buffer
MDA-MB-231 [2] = test: Induction of ferroptosis in human MDA-MB-231 cells assessed as cell viability incubated for 72 hrs in presence of glutathione by MTT assay; type: functional, cell-based; details: MDA-MB-231, 72 h
[3] = Toxicity in immunodeficient BALB/c mouse assessed as change in AST level at 20 mg/kg, ip for 14 days by biochemical analysis; type: organism-based; details: in vivo, 336 h, time 14 day
MDA-MB-231 [4] = test: Induction of ferroptosis-mediated morphological changes in human MDA-MB-231 cells assessed as change in nuclear morphology at 20 nM incubated for 6 hrs by TEM analysis; type: functional, cell-based
MDA-MB-231 [5] = test: Induction of ferroptosis in human MDA-MB-231 cells assessed as cell viability at 1 uM incubated for 72 hrs in presence of apoptosis inhibitor, Z-VAD-FMK by MTT assay; type: functional, cell-based
HT-29 = test: Antiproliferative activity against human HT-29 cells assessed as inhibition of cell viability at 1 uM incubated for 72 hrs by MTT assay; type: functional, cell-based
[6] = Toxicity in immunodeficient BALB/c mouse assessed as change in LDH level at 20 mg/kg, ip for 14 days by biochemical analysis; type: organism-based; details: in vivo, 336 h, time 14 day
4T1 = test: Antiproliferative activity against mouse 4T1 cells assessed as inhibition of cell viability at 1 uM incubated for 72 hrs by MTT assay; type: functional, cell-based
MDA-MB-231 [7] = test: Induction of ferroptosis in human MDA-MB-231 cells assessed as increase in intracellular lipid peroxidase by measuring decrease in red fluorescence intensity at 5 to 20 nM incubated for 8 hrs by C11-BODIPY-581/591 staining based confocal laser microscopy; type: functional, cell-based; details: dose 5-20 nM
L02 = test: Cytotoxicity against human L02 cells assessed as inhibition of cell viability at 1 uM incubated for 72 hrs by MTT assay; type: toxicity, cell-based; details: l02, 72 h
MDA-MB-231 [8] = test: Induction of ferroptosis in human MDA-MB-231 cells assessed as cell viability at 1 uM incubated for 72 hrs in presence of necrosis inhibitor, necrostatin-1 by MTT assay; type: functional, cell-based
MDA-MB-231 [9] = test: Induction of ferroptosis-mediated morphological changes in human MDA-MB-231 cells assessed as broken outer membrane at 20 nM incubated for 6 hrs by TEM analysis; type: functional, cell-based
[10] = Selectivity ratio, ratio of IC50 for Induction of ferroptosis in human MDA-MB-231 cells assessed as reduction in cell viability in presence of ferroptosis inhibitor, ferrostatin-1 to IC50 for antiproliferative activity against human MDA-MB-231 cells; type: functional
MDA-MB-231 [11] = test: Induction of ferroptosis in human MDA-MB-231 cells assessed as increase in intracellular Fe2+ level at 5 to 20 nM incubated for 8 hrs by FerroOrange staining based confocal laser microscopy; type: functional, cell-based; details: dose 5-20 nM
[12] = Toxicity in immunodeficient BALB/c mouse xenografted with human MDA-MB-231 cells assessed as morphological changes in spleen at 20 mg/kg, ip for 21 days by H and E staining based microscopy; type: organism-based; details: in vivo, 504 h, time 21 day
[13] = Toxicity in immunodeficient BALB/c mouse assessed as change in CK level at 20 mg/kg, ip for 14 days by biochemical analysis; type: organism-based; details: in vivo, 336 h, time 14 day
MDA-MB-231 [14] = test: Induction of ferroptosis in human MDA-MB-231 cells assessed as increase in intracellular ROS accumulation by measuring green fluorescence intensity at 5 to 20 nM incubated for 8 hrs by DCFH-DA staining based confocal laser microscopy; type: functional, cell-based; details: dose 5-20 nM
MDA-MB-231 [15] = test: Induction of ferroptosis-mediated morphological changes in human MDA-MB-231 cells assessed as increased membrane density at 20 nM incubated for 6 hrs by TEM analysis; type: functional, cell-based
[16] = target: T1, Phospholipid hydroperoxide glutathione peroxidase GPX4 (Homo sapiens, UniProt P36969); test: Covalent inhibition of GPX4 (unknown origin) assessed as inhibition constant incubated for 30 to 90 mins in presence of glutathione, glutathione reductase and NADPH by microplate reader analysis
T1 sequence (P36969 whole entry): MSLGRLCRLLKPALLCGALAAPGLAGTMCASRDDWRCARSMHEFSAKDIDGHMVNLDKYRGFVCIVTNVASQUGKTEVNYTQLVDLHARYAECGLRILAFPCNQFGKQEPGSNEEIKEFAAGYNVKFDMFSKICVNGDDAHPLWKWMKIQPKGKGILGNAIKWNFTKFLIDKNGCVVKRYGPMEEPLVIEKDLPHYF

MDA-MB-231 [17] = test: Induction of ferroptosis in human MDA-MB-231 cells assessed as cell viability incubated for 72 hrs in presence of N-acetyl-L-cysteine by MTT assay; type: functional, cell-based; details: MDA-MB-231, 72 h
MDA-MB-231 [18] = test: Induction of ferroptosis in human MDA-MB-231 cells assessed as cell viability incubated for 72 hrs in presence of ferroptosis inhibitor, ferrostatin-1 by MTT assay; type: functional, cell-based; details: MDA-MB-231, 72 h
MDA-MB-231 [19] = test: Antiproliferative activity against human MDA-MB-231 cells assessed as inhibition of cell viability incubated for 72 hrs by MTT assay; type: functional, cell-based; details: MDA-MB-231, 72 h
MDA-MB-231 [20] = test: Induction of ferroptosis in human MDA-MB-231 cells with assessed as decrease in intracellular GSH level at 20 nM incubated for 8 hrs by colorimetric assay; type: functional, cell-based
MDA-MB-231 [21] = test: Induction of ferroptosis-mediated morphological changes in human MDA-MB-231 cells assessed as ruptured mitochondria at 20 nM incubated for 6 hrs by TEM analysis; type: functional, cell-based
HeLa = test: Antiproliferative activity against human HeLa cells assessed as inhibition of cell viability at 1 uM incubated for 72 hrs by MTT assay; type: functional, cell-based
[22] = Toxicity in immunodeficient BALB/c mouse xenografted with human MDA-MB-231 cells assessed as morphological changes in lung at 20 mg/kg, ip for 21 days by H and E staining based microscopy; type: organism-based; details: in vivo, 504 h, time 21 day
[23] = Toxicity in immunodeficient BALB/c mouse xenografted with human MDA-MB-231 cells assessed as morphological changes in liver at 20 mg/kg, ip for 21 days by H and E staining based microscopy; type: organism-based; details: in vivo, 504 h, time 21 day
BT-549 = test: Antiproliferative activity against human BT-549 cells assessed as inhibition of cell viability at 1 uM incubated for 72 hrs by MTT assay; type: functional, cell-based
MDA-MB-231 [24] = test: Induction of ferroptosis-mediated morphological changes in human MDA-MB-231 cells assessed as smaller mitochondrial volume at 20 nM incubated for 6 hrs by TEM analysis; type: functional, cell-based
MDA-MB-231 [25] = test: Induction of ferroptosis in human MDA-MB-231 cells with assessed as change in ACSL4 protein expression level at 5 to 20 nM incubated for 8 hrs in presence of ferroptosis inhibitor, ferrostatin-1 by Western blot analysis; type: functional, cell-based; details: dose 5-20 nM
MDA-MB-231 [26] = test: Induction of ferroptosis in human MDA-MB-231 cells assessed as cell viability at 1 uM incubated for 72 hrs in presence of autophagy inhibitor, 3-MA by MTT assay; type: functional, cell-based
MDA-MB-231 [27] = test: Antitumor activity against human MDA-MB-231 cells xenografted in immunodeficient BALB/c mouse assessed as tumor growth inhibition at 20 mg/kg,ip for 21 days consecutively every day; type: functional; details: MDA-MB-231, 504 h, time 21 day, read-out: TGI
U-87 MG = test: Antiproliferative activity against human U87 cells assessed as inhibition of cell viability at 1 uM incubated for 72 hrs by MTT assay; type: functional, cell-based; details: U-87MG ATCC

With COc1cc(N(C(=O)CCl)c2ccc3c(c2)OCCO3)cc(OC)c1F the solubility [1] was 3.63 µg/mL (≈ 9.51 µM), the pIC50 (MDA-MB-231 [2]) was less than 4.70 and the Activity [3] was “Toxic”. For the same compound, the Activity (MDA-MB-231 [4]) was “inactive”, the Activity (MDA-MB-231 [5]) was “inactive” and the Activity (HT-29) was “inactive”. For the same compound, the Activity [6] was “Toxic”, the Activity (4T1) was “Active” and the Activity (MDA-MB-231 [7]) was “Dose-Dependent Effect”. The Activity (L02) was “Non-Toxic”, the Activity (MDA-MB-231 [8]) was “inactive” and the Activity (MDA-MB-231 [9]) was “Active”. The “Ratio IC50” value [10] was 249.5, the Activity (MDA-MB-231 [11]) was “Active” and the Activity [12] was “Non-Toxic”. The Activity [13] was “Toxic”, the Activity (MDA-MB-231 [14]) was “Dose-Dependent Effect” and the Activity (MDA-MB-231 [15]) was “Active”. The pKi [16] was 6.20, the pIC50 (MDA-MB-231 [17]) was less than 4.70 and the pIC50 (MDA-MB-231 [18]) was 5.59. The pIC50 (MDA-MB-231 [19]) was 7.92, the Activity (MDA-MB-231 [20]) was “Active” and the Activity (MDA-MB-231 [21]) was “Active”. For the same compound, the Activity (HeLa) was “inactive”, the Activity [22] was “Non-Toxic” and the Activity [23] was “Non-Toxic”. The Activity (BT-549) was “Active”, the Activity (MDA-MB-231 [24]) was “Active” and the Activity (MDA-MB-231 [25]) was “inactive”. The Activity (MDA-MB-231 [26]) was “inactive”, the inhibition in vivo at 20 mg/kg (MDA-MB-231 [27]) was 81% and the Activity (U-87 MG) was “inactive”.

For COc1cc(N(C(=O)CBr)c2ccc3c(c2)OCCO3)cc(OC)c1F, the solubility [1] was 3.3 µg/mL (≈ 7.74 µM), the pIC50 (MDA-MB-231 [2]) was less than 4.70 and the Activity [3] was “Toxic”. For the same compound, the Activity (MDA-MB-231 [4]) was “inactive”, the Activity (MDA-MB-231 [5]) was “inactive” and the Activity (HT-29) was “inactive”. For the same compound, the Activity [6] was “Toxic”, the Activity (4T1) was “Active” and the Activity (MDA-MB-231 [7]) was “Dose-Dependent Effect”. The Activity (L02) was “Non-Toxic”, the Activity (MDA-MB-231 [8]) was “inactive” and the Activity (MDA-MB-231 [9]) was “Active”. The “Ratio IC50” value [10] was 218.8, the Activity (MDA-MB-231 [11]) was “Active” and the Activity [12] was “Non-Toxic”. The Activity [13] was “Toxic”, the Activity (MDA-MB-231 [14]) was “Dose-Dependent Effect” and the Activity (MDA-MB-231 [15]) was “Active”. The pKi [16] was 6.23, the pIC50 (MDA-MB-231 [17]) was less than 4.70 and the pIC50 (MDA-MB-231 [18]) was 5.76. For the same compound, the pIC50 (MDA-MB-231 [19]) was 8.10, the Activity (MDA-MB-231 [20]) was “Active” and the Activity (MDA-MB-231 [21]) was “Active”. For the same compound, the Activity (HeLa) was “inactive”, the Activity [22] was “Non-Toxic” and the Activity [23] was “Non-Toxic”. For the same compound, the Activity (BT-549) was “Active”, the Activity (MDA-MB-231 [24]) was “Active” and the Activity (MDA-MB-231 [25]) was “inactive”. For the same compound, the Activity (MDA-MB-231 [26]) was “inactive”, the inhibition in vivo at 20 mg/kg (MDA-MB-231 [27]) was 71.7% and the Activity (U-87 MG) was “inactive”.

From ChEMBL document CHEMBL5346969 (J Med Chem, 2023)
